Results published in patent US9724351B2, “Compounds for the treatment of paramoxyvirus viral infections” (priority 2012, dated 2017).

Tests used:
[1] = test system: Respiratory Syncytial Virus (RSV) long strain (ATCC#VR-26); assay: RSV Antiviral Assay (CPE reduction assay); format: cell-based; conditions: human respiratory syncytial virus, 120 h; HEp-2 cells infected with RSV long strain, 5 days, CCK-8 readout; bins (Table 2: less than 1 μM; Table 3: equal to or higher than 1 μM and less than 50 μM); read-out: 50% effective concentration (EC50)
Experimental: CPE reduction assays are performed as described by Sidwell and Huffman et al., Appl. Microbiol. (1971) 22(5):797-801 with slight modifications. HEp-2 cells (ATCC#, CCL-23) are seeded at a density of 1,500 cells/30 μl/well into the 384-well cell plate(s) (Corning#3701) one day prior to the assay. Compounds are added into 384-well cell plates by Labcyte POD 810 Plate Assembler system. Each of the test compounds is provided to duplicate wells of a 384-well cell plate at final concentrations starting from 100 μM or 1 μM using ⅓ stepwise dilutions for 9 points. Quick-thaw Respiratory Syncytial Virus (RSV) long strain (ATCC#VR-26) stock in a 37° C. water bath. Place on ice until ready to use. Viruses are diluted to the concentration of 100 TCID50/30 μl with medium and 30 μl diluted RSV are added into related wells of 384-well cell plates. For each plate, sixteen wells are set aside as uninfected, untreated cell controls (CC), and nine wells per test plate receive virus only as a control for virus replication (VC). The final DMSO concentration of all wells is 1%. Place the plates at 37° C., 5% CO2 for 5 days.
After 5 days incubation, observe the CPE of cells in all wells. […] Six μl of cell counting kit-8 reagent (CCK-8, Dojindo Molecular Technologies Inc., CK04-20) are added to each well, which allows colorimetric assays to determine the number of viable cells through the dehydrogenase activity detection. After 3-4 hour incubation, the absorbance of each well is measured with a spectrophotometric plate reader at 450 nm wavelength, using a 630 nm filter as background according to manufacturer's instruction. The 50% effective concentration (EC50) is calculated by using regression analysis, based on the mean O.D. at each concentration of compound.

[2] = Cytotoxicity Determination; format: cell-based; conditions: human, HEp-2 cells, without addition of virus, CCK-8 readout, bins (Table 4: greater than 100 μM; Table 5: equal to or less than 100 μM and greater than 10 μM), read-out: 50% cytotoxicity concentration (CC50)
Procedure, shortened: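 Uninfected cells were exposed to compounds in duplicate over a 7-point ½ dilution series starting at 100 μM final, for 5 days at 37 °C, 5% CO2. CCK-8 was then added for 3-4 h, and CC50 was calculated from optical density.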

Row | Compound | EC50 [1] [µM] | CC50 at 5 days [2] [µM]
1 | COc1ccc(C(=O)NCC(=O)c2ccc(OC)c(-c3c(C)sc4cccnc34)n2)cc1OC [Compound 1502] | 1 to 50 | > 100
2 | COc1cc(C(=O)NCC(=O)c2ccc(OC)c(-c3cnn4ccccc34)n2)ccc1OCCO [Compound 1345] | 1 to 50 | > 100
3 | COc1cc(C(=O)NCC(=O)c2cc(C)cc(-c3csc4c(F)cccc34)n2)ccc1OCCO [Compound 1217] | < 1 | > 100
4 | COc1cc(C(=O)NCC(=O)c2ccc(OC)c(-c3ccc(F)c(Cl)c3)n2)ccc1OC(F)F [Compound 2646] | < 1 | 10 to 100
5 | COc1ccc(C(=O)NCC(=O)N/N=C(\C)c2csc3c(Cl)cccc23)cc1OC [Compound 400-11] | 1 to 50 | 10 to 100
6 | COc1ccc(C(=O)CNC(=O)c2ccnc(C)c2)nc1-c1ccc(F)c(Cl)c1 [Compound 4204] | 1 to 50 | > 100
7 | COc1cccc(/C(=N/NC(=O)CNC(=O)c2ccc(OC)c(OC)c2)C(F)(F)F)c1 [Compound 450] | 1 to 50 | > 100
8 | COc1cc(C(=O)NCC(=O)N(C)C(=O)Nc2csc3c(F)cccc23)ccc1OCCO [Compound 2802] | 1 to 50 | > 100
9 | COc1cc(C(=O)NCC(=O)c2ccc(OC)c(-c3ccc(F)c(Cl)c3)n2)ccc1OC1COC1 [Compound 1312] | < 1 | > 100
10 | CCN(/N=C/c1csc2c(F)cccc12)C(=O)CNC(=O)c1ccc(OCCO)c(OC)c1 [Compound 2301] | < 1 | > 100
11 | COc1cc(C(=O)NCC(=O)c2cccc(-c3csc4c(F)cccc34)n2)ccc1OCC(=O)O [Compound 1248] | 1 to 50 | 10 to 100
12 | CNCCOc1ccc(C(=O)NCC(=O)c2ccc(OC)c(-c3ccc(F)c(Cl)c3)n2)cc1OC [Compound 1313] | 1 to 50 | 10 to 100
13 | COc1cc(C(=O)NCC(=O)c2ccc(OC)c(-c3ccc(F)cc3)n2)ccc1OCCO [Compound 1608] | < 1 | 10 to 100
14 | COc1cc(C(=O)NCC(=O)c2cc(C(=O)O)cc(-c3csc4c(F)cccc34)n2)ccc1OCCO [Compound 1258] | 1 to 50 | > 100
15 | COc1ccc(C(=O)NCC(=O)N/N=C(\CCO)c2csc3ccccc23)cc1OC [Compound 492] | < 1 | > 100
16 | COc1ccc(C(=O)NCC(=O)c2ccc(OC)c(-c3ccc(Cl)cc3)n2)cc1OC [Compound 1525] | < 1 | > 100
17 | COc1ccc(C(=O)NCC(=O)N/N=C(\CCO)c2csc3c(F)cccc23)cc1OC [Compound 400-13] | 1 to 50 | > 100
18 | COc1ccc(C(=O)NCC(=O)c2ccc3c(n2)-c2c(sc4c(F)cccc24)CO3)cc1OC [Compound 2701] | 1 to 50 | 10 to 100
19 | COc1ccc(C(=O)NCC(=O)c2ccc(OC)c(-c3cccc(F)c3F)n2)cc1OC [Compound 1526] | 1 to 50 | > 100
20 | CCOc1ccc(C(=O)NCC(=O)N/N=C(\C)c2csc3ccccc23)cc1N(CC)CC [Compound 505] | 1 to 50 | 10 to 100
21 | COc1ccc(C(=O)NCC(=O)N/N=C(\C)c2cc(C)sc2C)cc1OC [Compound 438] | 1 to 50 | > 100
22 | COCCOc1ccc(C(=O)NCC(=O)N/N=C(\CCOC)c2csc3c(F)cccc23)cc1OC [Compound 513] | < 1 | > 100
23 | COc1ccc(C(=O)NCC(=O)c2ccc(OC)c(-c3ccccc3F)n2)cc1OC [Compound 1528] | 1 to 50 | > 100
24 | COc1ccc(C(=O)NCC(=O)c2cccc(-n3cnc4c(F)cccc43)n2)cc1OC [Compound 2600] | 1 to 50 | 10 to 100
25 | COc1cc(C(=O)NCC(=O)N/N=C(\C)c2csc3ccccc23)ccc1O [Compound 478] | 1 to 50 | 10 to 100
26 | COc1cc(C(=O)NCC(=O)N/N=C(\CC2CCCCC2)c2csc3c(F)cccc23)ccc1OCCO [Compound 605] | < 1 | 10 to 100
27 | COc1cc(C(=O)NCC(=O)c2ccc(OC)c(-c3ccc(Cl)c(Cl)c3)n2)ccc1OCCF [Compound 2627] | < 1 | > 100

Row | Compound | EC50 [1] [µM] | CC50 at 5 days [2] [µM]
28 | COc1ccc(C(=O)NCC(=O)c2ccc(OC)c(-c3cccc4c(F)cccc34)n2)cc1OC [Compound 1522] | 1 to 50 | 10 to 100
29 | COc1cc(C(=O)NCC(=O)c2c[nH]c(-c3csc4c(F)cccc34)n2)ccc1OCCO [Compound 1240] | 1 to 50 | > 100
30 | COc1cc(C(=O)N[C@@H](CO)C(=O)c2ccc(OC)c(-c3csc4c(F)cccc34)n2)ccc1OCCO [Compound 1830] | < 1 | > 100
31 | CCOc1ccc(C(=O)NCC(=O)N/N=C(\CCOC)c2csc3c(F)cccc23)cc1OC [Compound 463A] | < 1 | > 100
32 | C=C(C)c1cc(C(=O)CNC(=O)c2ccc(OC)c(OC)c2)nc(-c2csc3c(F)cccc23)c1 [Compound 1237] | < 1 | 10 to 100
33 | COc1cc(C(=O)NCC(=O)c2ccc(OC)c(-c3ccc(F)c(Cl)c3)n2)ccc1OCC(C)N (stereo not shown) [Compound 1315] | 1 to 50 | 10 to 100
34 | COc1cc(C(=O)NCC(=O)c2ccc(OC)c(-c3ccc(F)c(Cl)c3)n2)ccc1-c1cnn(C)c1 [Compound 2651] | 1 to 50 | 10 to 100
35 | COCCOc1ccc(C(=O)NCC(=O)c2ccc(OC)c(-c3ccc(F)c(Cl)c3)n2)cc1 [Compound 1311] | 1 to 50 | > 100
36 | COc1cc(C(=O)NCC(=O)c2ccc(OC)c(-c3ccc(F)c(Cl)c3)n2)ccc1OCCF [Compound 2648] | < 1 | > 100
37 | COc1ccc(C(=O)NCC(=O)c2ccc(OC)c(-c3c(C)ccnc3Cl)n2)cc1OC [Compound 1511] | 1 to 50 | 10 to 100
38 | COc1cc(C(=O)NCC(=O)c2ccc(OC)c(-c3ccc(S(C)(=O)=O)cc3)n2)ccc1OCCO [Compound 1604] | 1 to 50 | > 100
39 | COc1ccc(C(=O)NCC(=O)N/N=C2\CCCc3sc4ccccc4c32)cc1OC [Compound 446] | < 1 | > 100
40 | CCOc1ccc(C(=O)NCC(=O)N/N=C(\C)c2csc3c(F)cccc23)cc1OC [Compound 461] | < 1 | 10 to 100
41 | COc1ccc(C(=O)NCC(=O)N/N=C(/c2csc3ccccc23)C(F)F)cc1OC [Compound 445] | 1 to 50 | > 100
42 | COc1ccc(C(=O)NCC(=O)N/N=C/c2csc3c(F)cccc23)cc1OC [Compound 490] | < 1 | > 100
43 | COc1ccc(C(=O)NCC(=O)c2ccc(OC)c(-c3cccnc3C)n2)cc1OC [Compound 1540] | 1 to 50 | > 100
44 | COc1ccc(C(=O)NCC(=O)N/N=C(\CF)c2csc3ccccc23)cc1OC [Compound 444] | 1 to 50 | > 100
45 | COc1cc(C(=O)NCC(=O)c2ccc(OC)c(-c3ccc(F)c(Cl)c3)n2)ccc1OCC(N)=O [Compound 1316] | < 1 | > 100
46 | CCCc1cc(C(=O)CNC(=O)c2ccc(OC)c(OC)c2)nc(-c2csc3c(F)cccc23)c1 [Compound 1244] | < 1 | 10 to 100
47 | CCOc1ccc(C(=O)NCC(=O)N/N=C(\C)c2csc3ccccc23)cc1OC [Compound 502] | < 1 | > 100
48 | COc1ccc(C(=O)NCC(=O)c2cc(Cl)cc(-c3csc4c(F)cccc34)n2)cc1OC [Compound 2604] | 1 to 50 | > 100
49 | CCCCCC/C(=N\NC(=O)CNC(=O)c1ccc(OC)c(OC)c1)c1csc2ccccc12 [Compound 453] | 1 to 50 | 10 to 100
50 | COc1cc(C(=O)NCC(=O)c2cc(CO)cc(-c3csc4c(F)cccc34)n2)ccc1OCCO [Compound 1255] | < 1 | 10 to 100
51 | CCN(CC)c1ccc(C(=O)NCC(=O)N/N=C/c2csc3ccccc23)cc1 [Compound 235] | 1 to 50 | > 100
52 | COCCc1ccc(C(=O)NCC(=O)c2ccc(OC)c(-c3ccc(F)c(Br)c3)n2)cc1OC [Compound 1334] | < 1 | 10 to 100
53 | COc1ccc(C(=O)NCC(=O)c2ccc(OC)c(-c3ccccc3C#N)n2)cc1OC [Compound 1516] | 1 to 50 | 10 to 100
